Values of other authors, collected in patent US20260355312A1, “COMBINED THERAPY DRUG COMPRISING ANTI-HER2 BISPECIFIC ANTIBODY AND USE THEREOF” (JIANGSU ALPHAMAB BIOPHARMACEUTICALS CO., LTD., priority 2023, published 2026).

System: tumor

CC(=O)O[C@@]12CO[C@@H]1C[C@H](O)[C@@]1(C)C(=O)[C@H](O)C3=C(C)[C@@H](OC(=O)[C@H](O)[C@@H](NC(=O)OC(C)(C)C)c4ccccc4)C[C@@](O)([C@@H](OC(=O)c4ccccc4)[C@H]21)C3(C)C [Docetaxel, docetaxel]
antitumor activity compared to paclitaxel: stronger antitumor activity than paclitaxel
